In US10375959B2, “Ternary herbicidal combination comprising saflufenacil” (BASF Agro B.V., priority 2015, dated 2019):
“And” between values parts separate entries of the source, which are not always exact repeats. Equal values may be shown once. Read-outs that look alike come from different tables or passages of the source.

Key:
Assay type in all cases: in vivo
Digitaria sanguinalis = assay: Greenhouse post-emergence herbicidal activity on DIGSA (large crabgrass), 20 DAT
Source text: (§1) The test plants were first grown to a height of 3 to 20 cm, depending on the plant habit, and only then treated (post-emergence treatment). Here, the herbicidal combinations were suspended, emulsified or dissolved in water as distribution medium and afterwards applied by spraying, using finely distributing nozzles.
(§2) The herbicides A, B and C were used as commercially available formulations and introduced to the spray liquor with the amount of solvent system used for applying the active compound. In the examples, the solvent used was water.
(§3) The test period extended over 20 days. During this time, the plants were tended, and their response to the treatments with active compounds was evaluated.
(§4) The evaluation for the damage caused by the chemical compositions was carried out using a scale from 0 to 100%, compared to the untreated control plants. Here, 0 means no damage and 100 means complete destruction of the plants.
(§5) The plants used in the greenhouse experiments belonged to the following species:
(§6) The value E, which is to be expected if the activity of the individual compounds is just additive, was calculated using the method of S. R. Colby (1967) “Calculating synergistic and antagonistic responses of herbicide combinations”, Weeds 15, p. 22 ff. For two component mixtures the value E was calculated by the following formula E=X+Y−(X·Y/100)
(§7) where X=effect in percent using a mixture of herbicides A and B at application rates a and b, respectively; • Y=effect in percent using herbicide C at an application rate c; • E=expected effect (in %) of A+B+C at application rates a+b+c.
(§8) If the value observed in this manner is higher than the value E calculated according to Colby, a synergistic effect is present.
(§9) Tables 1 to 41 relate to the herbicidal activities of the binary mixture of herbicides A and B, of herbicide C individually and of their combinations in post-emergence applications assessed 20 days after treatment (20 DAT).

Brachiaria platyphylla = assay: Greenhouse post-emergence herbicidal activity on BRAPP (broadleaf signalgrass), 20 DAT
Source text: as §1, §2, §3, §4, §5, §6, §7, §8, §9

Abutilon theophrasti = assay: Greenhouse post-emergence herbicidal activity on ABUTH (velvetleaf), 20 DAT; conditions: for inhibition at 0.5 g/ha: 0.5 g ai/ha
Source text: as §1, §2, §3, §4, §5, §6, §7, §8, §9

Amaranthus retroflexus = assay: Greenhouse post-emergence herbicidal activity on AMARE (pig weed), 20 DAT
Source text: as §1, §2, §3, §4, §5, §6, §7, §8, §9

Setaria viridis = assay: Greenhouse post-emergence herbicidal activity on SETVI (green foxtail), 20 DAT
Source text: as §1, §2, §3, §4, §5, §6, §7, §8, §9

Avena fatua = assay: Greenhouse post-emergence herbicidal activity on AVEFA (wild oat), 20 DAT
Source text: as §1, §2, §3, §4, §5, §6, §7, §8, §9

Solarium nigrum = assay: Greenhouse post-emergence herbicidal activity on SOLNI (black nightshade), 20 DAT
Source text: as §1, §2
The test period extended over 20 days. During this time, the plants were tended, and their response to the treatments with active compounds was evaluated. […]
The value E, which is to be expected if the activity of the individual compounds is just additive, was calculated using the method of S. R. Colby (1967) “Calculating synergistic and antagonistic responses of herbicide combinations”, Weeds 15, p. […] For two component mixtures the value E was calculated by the following formula E=X+Y−(X·Y/100) […]
as §8, §9

Echinochloa crus-galli = assay: Greenhouse post-emergence herbicidal activity on ECHCG (barnyardgrass), 20 DAT
Source text: as §1, §2, §3, §4, §5, §6, §7, §8, §9

Brachiaria decumbens = assay: Greenhouse post-emergence herbicidal activity on BRADC (Surinam grass), 20 DAT
Source text: as §1, §2, §3, §4, §5, §6, §7, §8, §9

Structure (SMILES): CCCCC(CC)COC(=O)COc1ccc(Cl)cc1Cl (stereo not shown) [2,4-D LV ester, 2-ethylhexyl ester of 2,4-D]
- % activity 20 DAT (Digitaria sanguinalis; DIGSA, C 6.25 g ai/ha): 0%
- % activity 20 DAT (Brachiaria platyphylla; C 6.25 g ai/ha): 20%
- % activity 20 DAT (Abutilon theophrasti; ABUTH, C 6.25 g ai/ha): 20%

Structure (SMILES): CCOCN(C(=O)CCl)c1c(C)cccc1CC [acetochlor]
- % activity 20 DAT (Amaranthus retroflexus; AMARE, C 12.5 g ai/ha): 0%
- % activity 20 DAT (Setaria viridis; C 50.0 g ai/ha): 10%
- % activity 20 DAT (Avena fatua; C 50.0 g ai/ha): 10%
- % activity 20 DAT (Brachiaria platyphylla; C 50.0 g ai/ha): 5%
- pest or weed control at 25 g/ha (Abutilon theophrasti; Abutilon theophrasti, 480 h, ABUTH, C 25.0 g ai/ha): 25%

Structure (SMILES): CCNc1nc(Cl)nc(NC(C)C)n1 [atrazine]
- inhibition at 25 g/ha (Setaria viridis; Setaria viridis, 480 h, 25.0 g ai/ha, 20 DAT, read-out: % activity 20 DAT, solo C application): 25%
- % activity 20 DAT (Avena fatua; C 12.5 g ai/ha): 0%
- % activity 20 DAT (Brachiaria platyphylla; C 12.5 g ai/ha): 0%
- inhibition at 12.5 g/ha (Abutilon theophrasti; Abutilon theophrasti, 480 h, ABUTH, 12.5 g ai/ha, 20 DAT, read-out: % activity 20 DAT, solo C application): 25%

Structure (SMILES): CCSC(C)CC1CC(=O)C(/C(CC)=N/OC/C=C/Cl)=C(O)C1 (stereo not shown) [clethodim]
- inhibition at 0.75 g/ha (Amaranthus retroflexus; Amaranthus retroflexus, 480 h, read-out: % activity 20 DAT, solo C application): 20%
- inhibition at 0.75 g/ha (Digitaria sanguinalis; Digitaria sanguinalis, 480 h, read-out: % activity 20 DAT, solo C application): 0%
- % activity 20 DAT (Avena fatua; C 0.75 g ai/ha): 20%
- pest or weed control at 0.75 g/ha (Abutilon theophrasti; Abutilon theophrasti, 480 h, read-out: % activity 20 DAT): 5%
- inhibition at 0.75 g/ha (Abutilon theophrasti; Abutilon theophrasti, 480 h, read-out: % activity 20 DAT, solo C application): 5%

Structure (SMILES): COc1c(Cl)ccc(Cl)c1C(=O)O [dicamba]
- % activity 20 DAT (Brachiaria platyphylla; C 17.5 g ai/ha): 40%
- pest or weed control at 4.375 g/ha (Abutilon theophrasti; Abutilon theophrasti, 480 h, ABUTH, C 4.375 g ai/ha): 40%

Structure (SMILES): CCOc1nc(F)cc2nc(S(=O)(=O)Nc3c(Cl)cccc3Cl)nn12 [diclosulam]
- % activity 20 DAT (Digitaria sanguinalis; DIGSA, C 0.5 g ai/ha): 25%
- % activity 20 DAT (Solarium nigrum; C 0.125 g ai/ha): 0%
- % activity 20 DAT (Echinochloa crus-galli; C 1.0 g ai/ha): 20%
- % activity 20 DAT, solo C application (Brachiaria platyphylla; 1.0 g ai/ha, 20 DAT): 45%
- % activity 20 DAT, solo C application (Abutilon theophrasti; ABUTH, 0.125 g ai/ha, 20 DAT): 10%

Structure (SMILES): COC[C@H](C)N(C(=O)CCl)c1c(C)csc1C [dimethenamid-P]
- % activity 20 DAT, solo C application (Amaranthus retroflexus; AMARE, 37.5 g ai/ha, 20 DAT): 0%
- % activity 20 DAT (Amaranthus retroflexus; AMARE, C 18.75 g ai/ha): 0%
- % activity 20 DAT (Avena fatua; C 75.0 g ai/ha): 20%
- % activity 20 DAT, solo C application (Echinochloa crus-galli; 75 g ai/ha, 20 DAT): 80%
- % activity 20 DAT (Brachiaria platyphylla; C 75.0 g ai/ha): 5%
- % activity 20 DAT, solo C application (Abutilon theophrasti; ABUTH, 37.5 g ai/ha, 20 DAT): 0%

Structure (SMILES): C#CCN1C(=O)COc2cc(F)c(N3C(=O)C4=C(CCCC4)C3=O)cc21 [flumioxazin]
- % activity 20 DAT (Setaria viridis; C 0.5 g ai/ha): 40%

Structure (SMILES): CS(=O)(=O)NC(=O)c1cc(Oc2ccc(C(F)(F)F)cc2Cl)ccc1[N+](=O)[O-] [fomesafen]
- inhibition at 3 g/ha (Amaranthus retroflexus; Amaranthus retroflexus, 480 h, AMARE, 3.0 g ai/ha, 20 DAT, read-out: % activity 20 DAT, solo C application): 65%
- inhibition at […] (Digitaria sanguinalis; Digitaria sanguinalis, 480 h, DIGSA, 1.5 g ai/ha, 20 DAT, read-out: % activity 20 DAT, solo C application): 20%
- % activity 20 DAT (Avena fatua; C 1.5 g ai/ha): 20%
- inhibition at […] (Echinochloa crus-galli; Echinochloa crus-galli, 480 h, 1.5 g ai/ha, 20 DAT, read-out: % activity 20 DAT, solo C application): 20%
- inhibition at 3 g/ha (Abutilon theophrasti; Abutilon theophrasti, 480 h, ABUTH, 3.0 g ai/ha, 20 DAT, read-out: % activity 20 DAT, solo C application): 20%
- pest or weed control at […] (Abutilon theophrasti; Abutilon theophrasti, 480 h, ABUTH, C 1.5 g ai/ha): 5%
- % activity 20 DAT (Brachiaria decumbens; C 3.0 g ai/ha): 30%

Structure (SMILES): COCc1cnc(C2=NC(C)(C(C)C)C(=O)N2)c(C(=O)O)c1 (stereo not shown) [imazamox]
- % activity 20 DAT (Amaranthus retroflexus; AMARE, C 0.125 g ai/ha): 10%
- inhibition at 0.5 g/ha (Amaranthus retroflexus; Amaranthus retroflexus, 480 h, AMARE, 0.5 g ai/ha, 20 DAT, read-out: % activity 20 DAT, solo C application): 40%
- inhibition at 0.5 g/ha (Setaria viridis; Setaria viridis, 480 h, 0.5 g ai/ha, 20 DAT, read-out: % activity 20 DAT, solo C application): 15%
- % activity 20 DAT (Digitaria sanguinalis; DIGSA, C 1.0 g ai/ha): 15%
- inhibition at 0.5 g/ha (Digitaria sanguinalis; Digitaria sanguinalis, 480 h, DIGSA, 0.5 g ai/ha, 20 DAT, read-out: % activity 20 DAT, solo C application): 10%
- % activity 20 DAT (Echinochloa crus-galli; C 0.5 g ai/ha): 0%
- inhibition at 0.5 g/ha (Abutilon theophrasti; Abutilon theophrasti, 480 h, ABUTH, 20 DAT, Table 38, read-out: % activity 20 DAT, solo C application): 0%
- pest or weed control at 0.5 g/ha (Abutilon theophrasti; Abutilon theophrasti, 480 h, ABUTH, C 0.5 g ai/ha): 0%

Structure (SMILES): CCc1cnc(C2=NC(C)(C(C)C)C(=O)N2)c(C(=O)O)c1 (stereo not shown) [imazethapyr]
- % activity 20 DAT (Amaranthus retroflexus; AMARE, C 1.0 g ai/ha): 55%
- % activity 20 DAT (Digitaria sanguinalis; DIGSA, C 0.5 g ai/ha): 15%
- % activity 20 DAT (Digitaria sanguinalis; DIGSA, C 2.0 g ai/ha): 20%
- % activity 20 DAT (Avena fatua; C 0.5 g ai/ha): 0%

Structure (SMILES): CS(=O)(=O)c1cc(C(F)(F)F)ccc1C(=O)c1cnoc1C1CC1 [isoxaflutole]
- % activity 20 DAT (Digitaria sanguinalis; DIGSA, C 1.0 g ai/ha): 25%
- % activity 20 DAT (Solarium nigrum; C 0.5 g ai/ha): 70%
- % activity 20 DAT (Brachiaria platyphylla; C 2.0 g ai/ha): 40%
- inhibition at 0.5 g/ha (Abutilon theophrasti; Abutilon theophrasti, 480 h, ABUTH, 20 DAT, Table 36, read-out: % activity 20 DAT, solo C application): 50%
- pest or weed control at 1 g/ha (Abutilon theophrasti; Abutilon theophrasti, 480 h, ABUTH, C 1.0 g ai/ha): 85%

Structure (SMILES): CS(=O)(=O)c1ccc(C(=O)C2C(=O)CCCC2=O)c([N+](=O)[O-])c1 [mesotrione]
- % activity (Amaranthus retroflexus; AMARE, 20 DAT, C 0.625): 0%
- % activity 20 DAT (Digitaria sanguinalis; DIGSA, C 2.5 g ai/ha): 80%
- % activity (Brachiaria platyphylla; 20 DAT, C 5.0): 35%
- inhibition at 5 g/ha (Brachiaria platyphylla; Urochloa platyphylla, 480 h, 5.0 g ai/ha, 20 DAT, read-out: % activity 20 DAT, solo C application): 40%
- inhibition at 0.625 g/ha (Abutilon theophrasti; Abutilon theophrasti, 480 h, ABUTH, 0.625 g ai/ha, 20 DAT, read-out: % activity 20 DAT, solo C application): 75%

Structure (SMILES): CCC(CC)Nc1c([N+](=O)[O-])cc(C)c(C)c1[N+](=O)[O-] [pendimethalin]
- % activity 20 DAT (Avena fatua; C 150.0 g ai/ha): 0%
- % activity 20 DAT (Echinochloa crus-galli; C 75.0 g ai/ha): 0%
- % activity 20 DAT (Echinochloa crus-galli; C 150.0 g ai/ha): 0%
- pest or weed control at 37.5 g/ha (Abutilon theophrasti; Abutilon theophrasti, 480 h, ABUTH, C 37.5 g ai/ha): 0%

Structure (SMILES): Cc1c(C(=O)c2cnn(C)c2O)ccc(S(C)(=O)=O)c1C1=NOCC1 [topramezone]
- % activity 20 DAT, solo C application (Amaranthus retroflexus; AMARE, 0.25 g ai/ha, 20 DAT): 40%
- % activity 20 DAT (Amaranthus retroflexus; AMARE, C 0.25 g ai/ha): 40%
- % activity 20 DAT, solo C application (Setaria viridis; 0.25 g ai/ha, 20 DAT): 0%
- % activity 20 DAT (Setaria viridis; C 0.25 g ai/ha): 0%
- % activity 20 DAT (Setaria viridis; C 0.5 g ai/ha): 0%
- % activity 20 DAT, solo C application (Avena fatua; 0.25 g ai/ha, 20 DAT): 0%
- % activity 20 DAT, solo C application (Echinochloa crus-galli; 0.25 g ai/ha, 20 DAT): 25%
- % activity 20 DAT (Echinochloa crus-galli; C 0.25 g ai/ha): 25% and 20%
- % activity 20 DAT, solo C application (Abutilon theophrasti; ABUTH, 0.25 g ai/ha, 20 DAT): 10%
- % activity 20 DAT (Abutilon theophrasti; ABUTH, C 0.25 g ai/ha): 10% and 0%
- % activity 20 DAT (Brachiaria decumbens; C 0.25 g ai/ha): 0%
- % activity 20 DAT (Brachiaria decumbens; C 0.5 g ai/ha): 0%
